# Measurements taken from US20240116985A1, “STAPLED PEPTIDES AND METHODS THEREOF” (priority 2020, published 2024).
# Read-outs that look alike come from different tables or passages of the source.
# Tests used:
# [1] = target: T1, beta-catenin/TCF4 engagement (Homo sapiens, UniProt P35222); assay: Nano-BRET target engagement assay (B-cat-Halo & TCF4-Luc in HEK293 cells); assay type: cell-based; details: absolute IC50; read-out: NanoBRET Abs IC50
# T1 construct: expressed in transfected cells; host or cells: HEK293
# T1 sequence (P35222 1-781): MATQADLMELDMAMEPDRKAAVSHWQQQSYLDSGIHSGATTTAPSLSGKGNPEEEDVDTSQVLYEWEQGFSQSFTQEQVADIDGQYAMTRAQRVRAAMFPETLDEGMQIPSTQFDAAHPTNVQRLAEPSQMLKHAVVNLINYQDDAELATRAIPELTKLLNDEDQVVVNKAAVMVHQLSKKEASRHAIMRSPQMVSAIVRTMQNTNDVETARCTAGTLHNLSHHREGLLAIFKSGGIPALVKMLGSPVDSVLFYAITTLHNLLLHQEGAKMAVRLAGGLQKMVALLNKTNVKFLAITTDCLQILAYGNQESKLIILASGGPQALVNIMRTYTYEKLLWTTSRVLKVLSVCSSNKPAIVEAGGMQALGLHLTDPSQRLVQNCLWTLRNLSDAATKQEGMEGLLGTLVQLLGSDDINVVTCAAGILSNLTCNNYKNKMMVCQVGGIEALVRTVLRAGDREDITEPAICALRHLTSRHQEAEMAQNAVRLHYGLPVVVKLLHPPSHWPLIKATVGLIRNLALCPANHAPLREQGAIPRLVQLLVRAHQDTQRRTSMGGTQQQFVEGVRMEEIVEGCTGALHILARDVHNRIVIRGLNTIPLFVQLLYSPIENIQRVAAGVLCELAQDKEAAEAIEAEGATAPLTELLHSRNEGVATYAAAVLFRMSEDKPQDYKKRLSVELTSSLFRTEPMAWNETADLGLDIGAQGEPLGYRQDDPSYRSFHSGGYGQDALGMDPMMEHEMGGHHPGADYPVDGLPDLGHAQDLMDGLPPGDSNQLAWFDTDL
# Solubility in PBS = assay type: physicochemical
# Summary of the method: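 HPLC quantitation of peptide remaining in the PBS supernatant after ultracentrifugation, referenced to a 50 μM solution in DMSO.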
# [2] = target: T2, full-length beta-Catenin (Uniprot ID P35222) (Homo sapiens, UniProt P35222); assay: Fluorescence polarization IC50 (beta-catenin / 5FAM-TCF4 10-53 competition); assay type: binding; details: fluorescence polarization; read-out: beta-Catenin FP IC50
# T2 construct: 10 nM full-length beta-Catenin (Uniprot ID P35222)
# T2 sequence (P35222 1-781): T1 sequence (P35222 1-781)
IC50 [1] [µM],Solubility (Solubility in PBS) [µM],IC50 [2] [µM],Solubility (Solubility in PBS; Solubility (uM)) [µM],Structure (SMILES)
10,50,0.016,,"CC(=O)N1CCC[C@]12CC=CCCCC1(CCCC=CCCCOC(=O)N3CC[C@@](C(=O)N[C@@H](Cc4ccccc4C#N)C(=O)N[C@@H](Cc4csc5ccccc45)C(=O)N[C@@H](CCC(N)=O)C(N)=O)(C3)NC(=O)[C@H](CC(C)C)NC(=O)[C@H](Cc3ccccc3)NC(=O)[C@H](C)NC(=O)[C@H](C)NC(=O)[C@H](CC(=O)O)NC(=O)[C@H](CC(=O)O)NC1=O)NC(=O)[C@H](CC(C)(C)C)NC(=O)[C@H](CC(=O)O)NC2=O (stereo partly drawn) [I-1203, Ac-PL3-Asp-Npg-B5-Asp-Asp-Ala-Ala-Phe-Leu-PyrS2-2CNF-BztA-Gln-NH2]"
27.8,50,0.032,,"CC(=O)N1CCC[C@]12CC=CCCCC1(CCCC=CCCCOC(=O)N3CC[C@@](C(=O)N[C@@H](Cc4ccsc4)C(=O)N[C@@H](Cc4csc5ccccc45)C(=O)N[C@@H](CCC(N)=O)C(N)=O)(C3)NC(=O)[C@H](CC(N)=O)NC(=O)[C@H](Cc3ccccc3)NC(=O)[C@H](C)NC(=O)[C@H](C)NC(=O)[C@H](CC(=O)O)NC(=O)[C@H](CC(N)=O)NC1=O)NC(=O)[C@H](CC(C)(C)C)NC(=O)[C@H](CC(=O)O)NC2=O (stereo partly drawn) [I-1206, Ac-PL3-Asp-Npg-B5-Asn-Asp-Ala-Ala-Phe-Asn-PyrS2-3Thi-BztA-Gln-NH2]"
7.5,,0.04,11,"CC(=O)N1CCC[C@]12CC=CCCCC1(CCCC=CCCCOC(=O)N3CC[C@@](C(=O)N[C@@H](Cc4ccsc4)C(=O)N[C@@H](Cc4csc5ccccc45)C(=O)N[C@@H](CCC(N)=O)C(N)=O)(C3)NC(=O)[C@H](CC(C)C)NC(=O)[C@H](Cc3ccccc3)NC(=O)[C@H](C)NC(=O)[C@H](C)NC(=O)[C@H](CC(=O)O)NC(=O)[C@H](CC(N)=O)NC1=O)NC(=O)[C@H](CC(C)(C)C)NC(=O)[C@H](CC(=O)O)NC2=O (stereo partly drawn) [I-1207, Ac-PL3-Asp-Npg-B5-Asn-Asp-Ala-Ala-Phe-Leu-PyrS2-3Thi-BztA-Gln-NH2]"
> 20,,0.014,42,"COCCOCCC(=O)N1CCC[C@]12CC=CCCCC1(CCCC=CCCCOC(=O)N3CC[C@@](C(=O)N[C@@H](Cc4ccccc4Cl)C(=O)N[C@@H](Cc4csc5ccccc45)C(=O)N[C@@H](C(N)=O)[C@H](C)O)(C3)NC(=O)[C@H](CC(N)=O)NC(=O)[C@H](Cc3ccccc3)NC(=O)[C@H](C)NC(=O)[C@H](C)NC(=O)[C@H](CC(=O)O)NC(=O)[C@H](CC(=O)O)NC1=O)NC(=O)[C@H](CC(C)(C)C)NC(=O)[C@H](CC(=O)O)NC2=O (stereo partly drawn) [I-1253, mPEG2-PL3-Asp-Npg-B5-Asp-Asp-Ala-Ala-Phe-Asn-PyrS2-2C1F-BztA-dThr-NH2]"
> 20,50,0.032,,"COCCOCCC(=O)N1CCC[C@]12CC=CCCCC1(CCCC=CCCCCCC[C@@](C)(C(=O)N[C@@H](Cc3ccccc3Cl)C(=O)N[C@@H](Cc3csc4ccccc34)C(=O)N[C@@H](CCC(N)=O)C(N)=O)NC(=O)[C@H]([C@@H](C)O)NC(=O)[C@H](Cc3ccccc3)NC(=O)[C@H](C)NC(=O)[C@H](C)NC(=O)[C@H](CC(=O)O)NC(=O)[C@H](CC(=O)O)NC1=O)NC(=O)[C@H](CC(C)(C)C)NC(=O)[C@H](CC(=O)O)NC2=O (stereo partly drawn) [I-1255, mPEG2-PL3-Asp-Npg-B5-Asp-Asp-Ala-Ala-Phe-Thr-S8-2C1F-BztA-Gln-NH2]"
24,50,0.023,,"C[C@@H]1NC(=O)[C@H](C)NC(=O)[C@H](CC(=O)O)NC(=O)[C@H](CC(=O)O)NC(=O)C2(CCCC=CCCCCCC[C@@](C)(C(=O)N[C@@H](Cc3ccccc3Cl)C(=O)N[C@@H](Cc3csc4ccccc34)C(=O)N[C@@H](CCC(N)=O)C(N)=O)NC(=O)[C@H]([C@@H](C)O)NC(=O)[C@H](Cc3ccccc3)NC1=O)CCCC=CC[C@]1(CCCN1S(C)(=O)=O)C(=O)N[C@@H](CC(=O)O)C(=O)N[C@@H](CC(C)(C)C)C(=O)N2 (stereo partly drawn) [I-1260, MeSO2-PL3-Asp-Npg-B5-Asp-Asp-Ala-Ala-Phe-Thr-S8-2C1F-BztA-Gln-NH2]"
